Data published in patent publication US5225417A, “Opioid agonist compounds” (priority 1992, dated 1993).
Structures can show the parent of a compound that is named as a salt.

Assays:
[1] = test system: mice or rats; assay: Tail Flick Assay; assay type: in vivo
Description: The "Tail Flick Assay" uses thermal pain of transient duration, and is a test in which the pain threshold of the mice or rats being analyzed has not been altered. It is useful for evaluating the ability of a compound or drug to increase the animal's pain threshold (i.e. prolong response latencies), rather than to restore normal thresholds.
The heat-induced response to the Tail Flick Assay is a reflex reaction mediated at the level of the spinal cord.
Opiate compounds having clinical efficacy as analgesics generally increase tail flick latencies. Thus, morphine and codeine are generally determined to be active in this test.
The Tail Flick Assay was performed generally in the manner described by G. Woolfe et al., "The Evaluation of the Analgesic Action of Pethidine Hydrochloride (Demerol)," J. Pharmacol. Exp. Ther., 80, 300, (1944), F. D'Amour et al., "A Method for Determining Loss of Pain Sensation," J. Pharmacol. Exp. Ther., 72, 74, 300-307 (1941), and E. Drower et al., "The Antinociceptive Effects of Prostaglandin Antagonists in the Rat," European Journal of Pharmacology, 133, 249-256 (1987).
Male Charles River albino mice and male Charles River Sprague-Dawley rats weighing 20 to 30 g and 200 to 250 g, respectively, was employed in this assay.
Tail flick response latencies (defined as the time that elapsed between the onset of a high intensity beam of light and the reflex removal of the mouse or rat's tail) was measured before (baseline) and again at fixed intervals after subcutaneous or intracerebro-ventricular administration of one of the compounds of the invention, or after the administration of saline (controls). The cut-off latencies established to prevent tissue damage in the animals are 12 seconds or 14 seconds in the mouse and rat, respectively, in the Tail Flick Assay. The significance of any increase in tail flick response latency is determined using analyses of variance.
One way analyses of variance were used to determine the significance of the effect of the compounds of the invention on response latencies.
"Activity" or "Inactivity" was determined at a particular concentration of the compound by a significant increase in tail flick latency above normal latencies.
The numbers in parentheses are calculated ED50 values.

[2] = molecular target: μ opioid receptor (Rattus norvegicus, UniProt P33535); assay: Opiate Binding Assay, μ receptor (3[H]-DAMGO displacement); settings: rat forebrain membranes, 3[H]-DAMGO 2.0 nM, 37° C., pH 7.4
μ opioid receptor, sequence (P33535 whole entry): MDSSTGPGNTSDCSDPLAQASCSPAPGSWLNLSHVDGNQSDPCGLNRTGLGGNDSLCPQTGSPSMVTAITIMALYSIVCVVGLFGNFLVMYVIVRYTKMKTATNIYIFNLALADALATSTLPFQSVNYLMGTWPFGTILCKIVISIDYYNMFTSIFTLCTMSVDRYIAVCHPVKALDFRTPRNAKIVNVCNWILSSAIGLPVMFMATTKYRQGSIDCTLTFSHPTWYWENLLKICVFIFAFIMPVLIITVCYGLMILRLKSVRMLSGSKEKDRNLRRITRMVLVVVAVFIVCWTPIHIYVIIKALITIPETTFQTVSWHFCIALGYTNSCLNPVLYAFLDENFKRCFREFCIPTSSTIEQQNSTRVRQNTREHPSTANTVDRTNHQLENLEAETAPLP

[3] = molecular target: δ opioid receptor (Rattus norvegicus, UniProt P33533); assay: Opiate Binding Assay, δ receptor (3[H]-DSLET displacement)
δ opioid receptor, sequence (P33533 whole entry): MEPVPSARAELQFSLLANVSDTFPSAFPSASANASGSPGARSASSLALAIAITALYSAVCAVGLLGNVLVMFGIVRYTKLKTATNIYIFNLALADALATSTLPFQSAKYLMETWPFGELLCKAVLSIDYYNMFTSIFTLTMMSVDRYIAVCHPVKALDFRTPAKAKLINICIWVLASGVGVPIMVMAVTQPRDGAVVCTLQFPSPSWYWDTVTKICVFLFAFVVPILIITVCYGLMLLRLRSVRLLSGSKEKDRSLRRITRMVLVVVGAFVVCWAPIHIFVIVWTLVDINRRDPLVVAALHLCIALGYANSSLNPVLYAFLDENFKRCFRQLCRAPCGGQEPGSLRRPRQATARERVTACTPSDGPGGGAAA

[4] = test system: mice or rats; settings: background statement; cited from earlier work

## Oc1ccc2c3c1O[C@H]1c4oc5ccccc5c4C[C@@]4(O)[C@@H](C2)N(Cc2ncc[nH]2)CC[C@]314 (relative stereo) [Example XV, 5,6,7,8,14,14bβ-Hexahydro-(1H-imidazol-2-ylmethyl)-4,8(R,α)-methano-4bS*-benzofuro[2,3-a]pyrido [4,3-b]carbazole-1,8aβ(9H)-diol, hydrochloride]
[1]; intracerebroventricular
  Tail flick activity, intracerebroventricular: ~ 10 nmoles
  active dose in tail flick, intracerebroventricularly: ca. 10 nmoles
[1]; subcutaneous
  Tail flick activity, subcutaneous (active at): inactive
[2]
  Mean IC50 Value, μ: inactive
[3]
  IC50: 79.2 nM

## Cc1cc(CC(=O)O)n(C)c1C(=O)c1ccc(Cl)cc1 [Zomax]
[4]
  activity in tail flick test (general knowledge): little activity

## CC(=O)Oc1ccccc1C(=O)O [aspirin]
[4]
  activity in tail flick test (general knowledge): little activity

## COc1ccc2c3c1O[C@H]1[C@@H](O)C=C[C@H]4[C@@H](C2)N(C)CC[C@@]341 [codeine]
[4]
  activity in tail flick test (general knowledge): active

## CN1CC[C@]23c4c5ccc(O)c4O[C@H]2[C@@H](O)C=C[C@H]3[C@H]1C5 [morphine]
[4]
  activity in tail flick test (general knowledge): active
